Experimental data from patent US5990142A, “Benzopyran derivatives having leukotriene-antagonistic action” (Laboratorios Menarini S.A., priority 1996, dated 1999).

Biological target: T1, LTD4 receptor (Cavia porcellus, UniProt Q2NNR5)
T1 construct: Guinea pig lung membranes, containing the LTD4 receptors, are purified; from tissue; host or cells: guinea-pig lung membranes
T1 sequence (Q2NNR5 1-340): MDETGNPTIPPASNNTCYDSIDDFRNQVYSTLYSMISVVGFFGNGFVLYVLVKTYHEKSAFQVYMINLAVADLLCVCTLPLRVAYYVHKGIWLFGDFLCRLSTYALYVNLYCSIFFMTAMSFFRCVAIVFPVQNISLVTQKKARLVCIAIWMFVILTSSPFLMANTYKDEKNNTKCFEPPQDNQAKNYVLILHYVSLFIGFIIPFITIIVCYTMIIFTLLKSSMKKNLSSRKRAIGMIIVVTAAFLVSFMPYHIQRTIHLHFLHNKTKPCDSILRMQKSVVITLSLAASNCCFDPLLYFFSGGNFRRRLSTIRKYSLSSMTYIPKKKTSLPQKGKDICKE
Assay: [^3 H]-LTD4 Receptor Binding Inhibition Test in Guinea-pig Lung Membranes
Conditions: 0.5 nM [^3 H]-LTD4, 30 min at 25° C., pH 7.4, Cheng-Prusoff
Protocol: The antagonistic activity on LTD4 of the compounds of the present invention is determined by means of an inhibition test of the [^3 H]-LTD4 receptor binding in guinea-pig lung membranes.
[^3 H]-LTD4 Receptor Binding Inhibition Test in Guinea-pig Lung Membranes
Guinea pig lung membranes, containing the LTD4 receptors, are purified following the method described by Mong and col. (Mong et al., Prostaglandins, 1984, 28. 805). These purified membranes (150 μg/ml) are added to an incubation mixture containing 10 mM of PIPES buffer (piperazine-N,N'-bis(2-ethanesulfonic acid) (pH 7.4), 10 mM CaCl2, 10 mM MgCl2, 2 mM cysteine, 2 mM glycine, 0.5 nM [^3 H]-LTD4 (4700-6400 GBq/mmol) and different concentrations of the product under test in a final volume of 310 μl. The reaction mixture is incubated for 30 minutes at 25° C.
The radioligand bound to the membranes is separated from the free one by dilution with 4 ml washing buffer (10 mM Tris-HCl (pH 7.4) and 100 mM NaCl) at 0° C. and filtration with Whatman GF/B filters, by means of a Brandel Cell Harvester. The filters are washed 4 times with a total volume of 16 ml of washing buffer at 0° C. The radioactivity present in the filters is determined by liquid scintillation.
The specific binding is defined as the difference between the total binding of [^3 H]-LTD4 and the non-specific binding determined in the presence of 1 μM LTD4. The data obtained in the competition tests are analyzed by a computational program, which determines the inhibition constant of each compound (Ki) by means of the Cheng-Prusoff equation (Cheng et al., Biochem. Pharmacol., 1973, 22, 3094).
wherein IC50 is the concentration of compound which displaces a 50% of the bound radioligand, [L] is the concentration of [^3 H]LTD4 free in the test and Kd is the dissociation constant of the LTD4 obtained in an independent way by means of Scatchard analysis.

SMILES	Ki [nM]
O=C(Nc1cccc2c(=O)cc(C(=O)O)oc12)c1ccc2c(c1)CCC(COCc1ccccc1)O2 (centres unmarked) [Example 1, 8-[2-(Benzyloxymethyl)chromane-6-carboxamido]-4-oxo-4H-1-benzopyran-2-carboxylic acid]	145 ± 34
O=C(Nc1cccc2c(=O)cc(-c3nnn[nH]3)oc12)c1ccc2c(c1)CCC(COCc1ccccc1)O2 (centres unmarked) [Example 2, N-[4-Oxo-2-(1H-5-tetrazolyl)-4H-1-benzopyran-8-yl]-2-(benzyloxymethyl)chromane-6-carboxamide]	12 ± 4
O=C(Nc1cccc2c(=O)cc(C(=O)O)oc12)c1ccc2oc(COCc3ccccc3)cc2c1 [Example 5, 8-[2-(Benzyloxymethyl)benzofuran-5-carboxamido]-4-oxo-4H-1-benzopyran-2-carboxylic acid]	24 ± 3
O=C(Nc1cccc2c(=O)cc(C(=O)O)oc12)c1cc(Cl)c2c(c1)CC(CCCc1ccccc1)O2 (centres unmarked) [Example 13, 8-[7-chloro-2-(3-phenylpropyl)-2,3-dihydrobenzofuran-5-carboxamido]-4-oxo-4H-1-benzopyran-2-carboxylic acid]	9.3 ± 3
O=C(O)c1cc(=O)c2cccc(NC(=O)c3ccc4c(c3Cl)CC(CCCc3ccccc3)O4)c2o1 (centres unmarked) [Example 15, 8-[4-Chloro-2-(3-phenylpropyl)-2,3-dihydrobenzofuran-5-carboxamido]-4-oxo-4H-1-benzopyran-2-carboxylic acid]	102 ± 48
O=C(O)c1cc(=O)c2cccc(NC(=O)c3cc4c(cc3Cl)OC(CCCc3ccccc3)C4)c2o1 (centres unmarked) [Example 16, 8-[6-Chloro-2-(3-phenylpropyl)-2,3-dihydrobenzofuran-5-carboxamido]-4-oxo-4H-1-benzopyran-2-carboxylic acid]	169 ± 24
Cc1cn(CCCCc2ccccc2)c2ccc(C(=O)Nc3cccc4c(=O)cc(-c5nnn[nH]5)oc34)cc12 [Example 17, N-[4-Oxo-2-(1H-5-tetrazolyl)-4H-1-benzopyran-8-yl]-1-(4-phenylbutyl)-3-methylindole-5-carboxamide]	1200 ± 440
O=C(O)c1cc(=O)c2cccc(OCc3ccc(OCCCCc4ccccc4)cc3)c2o1 [Example 18, 8-[[4-(4-phenylbutoxy)phenyl]methyloxy]-4-oxo-4H-1-benzopyran-2-carboxylic acid]	174 ± 43
O=C(O)c1cc(=O)c2cccc(NS(=O)(=O)c3ccc(OCCCCc4ccccc4)cc3)c2o1 [Example 19, 8-[[4-(4-Phenylbutoxy)phenyl]sulfonylamino]-4-oxo-4H-1-benzopyran-2-carboxylic acid]	6 ± 1
O=C(O)c1cc(=O)c2cccc(/C=C/c3ccc(OCCCCc4ccccc4)cc3)c2o1 [Example 20, 4-oxo-8-[(E)-2-[4-(4-phenylbutoxy)phenyl]ethen-1-yl]-4H-1-benzopyran-2-carboxylic acid]	6.2 ± 1.3
O=c1cc(-c2nnn[nH]2)oc2c(/C=C/c3ccc(OCCCCc4ccccc4)cc3)cccc12 [Example 21, 8-[(E)-2-[4-(4-Phenylbutoxy)phenyl]ethen-1-yl]-4-oxo-2-(5-1H-tetrazolyl]-4H-1-benzopyran]	0.5 ± 0.2
O=C(O)c1cc(=O)c2cccc(/C=C/c3ccc(OCCCCc4ccc(F)cc4)cc3)c2o1 [Example 22, 8-[(E)-2-[4-[4-(4-Fluorophenyl)butoxy]phenyl]-ethen-1-yl]-4-oxo-4H-1-benzopyran-2-carboxylic acid]	6 ± 3
O=c1cc(-c2nnn[nH]2)oc2c(/C=C/c3ccc(OCCCCc4ccc(F)cc4)cc3)cccc12 [Example 23, 8-[(E)-2-[4-[4-(4-Fluorophenyl)butoxy]phenyl]ethen-1-yl]-4-oxo-2-(5-1H-tetrazolyl)-4H-1-benzopyran]	0.39 ± 0.1
O=C(O)c1cc(=O)c2cccc(/C=C/c3ccc(OCCCCc4ccccc4)cc3F)c2o1 [Example 24, 8-[(E)-2-[4-(4-Phenylbutoxy)-2-fluorophenyl]ethen-1-yl]-4-oxo-4H-1-benzopyran-2-carboxylic acid]	22.3 ± 0.1

The next lines start with the values.

Ki [nM]	SMILES
5.6 ± 0.5	O=C(Nc1cccc2c(=O)cc(C(=O)O)oc12)c1ccc2c(c1)CCC(CCCc1ccccc1)O2 (centres unmarked) [Example 3, 8-[2-(3-Phenylpropyl)chromane-6-carboxamido]-4-oxo-4H-1-benzopyran-2-carboxylic acid]
2.3 ± 0.2	O=C(Nc1cccc2c(=O)cc(-c3nnn[nH]3)oc12)c1ccc2c(c1)CCC(CCCc1ccccc1)O2 (centres unmarked) [Example 4, N-[4-Oxo-2-(1H-5-tetrazolyl)-4H-1-benzopyran-8-yl]-2-(3-phenylpropyl)chromane-6-carboxamide]
6 ± 2.1	O=C(Nc1cccc2c(=O)cc(C(=O)O)oc12)c1ccc2c(c1)CC(COCc1ccccc1)O2 (centres unmarked) [Example 6, 8-(2-Benzyloxymethyl-2,3-dihydrobenzofuran-5-carboxamido)-4-oxo-4H-1-benzopyran-2-carboxylic acid]
1.88 ± 0.2	O=C(Nc1cccc2c(=O)cc(-c3nnn[nH]3)oc12)c1ccc2c(c1)CC(COCc1ccccc1)O2 (centres unmarked) [Example 7, N-[4-Oxo-2-(1H-5-tetrazolyl)-4H-1-benzopyran-8-yl]-2-benzyloxymethyl-2,3-dihydrobenzofuran-5-carboxamide]
1.73 ± 0.2	O=C(Nc1cccc2c(=O)cc(C(=O)O)oc12)c1ccc2c(c1)CC(CCCc1ccccc1)O2 (centres unmarked) [Example 8, 8-[2-(3-Phenylpropyl)-2,3-dihydrobenzofuran-5-carboxamido]-4-oxo-4H-1-benzopyran-2-carboxylic acid]
1.1 ± 0.2	O=C(Nc1cccc2c(=O)cc(-c3nnn[nH]3)oc12)c1ccc2c(c1)CC(CCCc1ccccc1)O2 (centres unmarked) [Example 9, N-[4-Oxo-2-(1H-5-tetrazolyl)-4H-1-benzopyran-8-yl]-2-(3-phenylpropyl)-2,3-dihydrobenzofuran-5-carboxamide]
9 ± 0.8	O=C(Nc1cccc2c(=O)cc(C(=O)O)oc12)c1ccc2c(c1)CC(CSCc1ccccc1)O2 (centres unmarked) [Example 10, 8-(2-Benzylthiomethyl-2,3-dihydrobenzofuran-5-carboxamido)-4-oxo-4H-1-benzopyran-2-carboxylic acid]
1.9 ± 0.04	O=C(Nc1cccc2c(=O)cc(C(=O)O)oc12)c1ccc2c(c1)CC(COCc1ccc(F)cc1)O2 (centres unmarked) [Example 11, 8-[2-(4'-Fluorobenzyloxymethyl)-2,3-dihydrobenzofuran-5-carboxamido]-4-oxo-4H-1-benzopyran-2-carboxylic acid]
0.39 ± 0.1	O=C(Nc1cccc2c(=O)cc(-c3nnn[nH]3)oc12)c1ccc2c(c1)CC(COCc1ccc(F)cc1)O2 (centres unmarked) [Example 12, N-[4-Oxo-2-(1H-5-tetrazolyl)-4H-1-benzopyran-8-yl]-2-(4'-fluorobenzyloxymethyl)-2,3-dihydrobenzofuran-5-carboxamide]
4.2 ± 1.1	O=C(Nc1cc(F)cc2c(=O)cc(C(=O)O)oc12)c1ccc2c(c1)CC(CCCc1ccccc1)O2 (centres unmarked) [Example 14, 8-[2-(3-Phenylpropyl)-2,3-dihydrobenzofuran-5-carboxamido]-6-fluoro-4-oxo-4H-1-benzopyran-2-carboxylic acid]
1.25 ± 0.3	O=C(O)c1cc(=O)c2cccc(/C=C/c3ccc4c(c3)CC(COCc3ccc(F)cc3)O4)c2o1 (centres unmarked) [Example 25, 8-[(E)-2-[2-(4'-Fluorobenzyloxymethyl)-2,3-dihydrobenzofuran-5-yl]ethen-1-yl]-4-oxo-4H-1-benzopyran-2-carboxylic acid]
0.46 ± 0.1	O=c1cc(-c2nnn[nH]2)oc2c(/C=C/c3ccc4c(c3)CC(COCc3ccc(F)cc3)O4)cccc12 (centres unmarked) [Example 26, 8-[(E)-2-[2-(4'-fluorobenzyloxymethyl)-2,3-dihydrobenzofuran-5-yl]ethen-1-yl]-4-oxo-2-(5-1H-tetrazolyl)-4H-1-benzopyran]
